Like-named read-outs stand apart in the source and are kept apart here.
Assays:
[1] = system: intracellular T. cruzi amastigotes; assay: Primary high-content intracellular T. cruzi amastigote assay; assay type: cell-based, Trypanosoma cruzi (Silvio X10/7 A1) in Vero cells; details: for EC50: Trypanosoma cruzi, read-out: pEC50 (cruzi) (converted)
Experimental: (§1) The compounds tested were obtained from the NIH (Clinical Collection) and from SelleckChem (FDA-approved drug library). Compounds were dispensed into black 384-well assay plates (Corning) by acoustic dispensing (LabCyte ECHO). […] Potencies are reported as pEC50 (-LOG(EC50[M])).
(§2) For the primary intracellular assay the infection conditions were chosen so that no trypomastigote egress occurs during the compound incubation time. First, Vero cells were infected overnight with tissue culture derived T. cruzi trypomastigotes in T225 tissue culture flasks (MOI 5). Next, any remaining free trypomastigotes were washed away with serum free MEM and the infected Vero cells were harvested by trypsinisation. The infected Vero cells were then plated into 384-well plates containing the compounds to be tested, at 4000 cells per well in MEM media with 1% FCS. […] The plates were imaged on a Perkin Elmer Operetta high-content imaging system using a 20x objective. Images were analysed using the Columbus system (Perkin Elmer). The algorithm for the primary assay first identified the Vero nuclei followed by demarcation of the cytoplasm and identification of intracellular amastigotes. This algorithm reported mean number of parasites per Vero cell and total number of Vero cells. Data analysis was as described in [22]. […] Hits from the primary screen were selected based on the following criteria: T. cruzi activity (percent inhibition) > (median T. cruzi percent inhibition + 3 x robust Standard Deviation) and Vero activity (percent inhibition) < (median percent Vero inhibition + 3 x robust Standard Deviation).

Vero cells = assay: Host cell toxicity read-out of the primary assay (Vero cell count); assay type: cell-based; details: for EC50: Chlorocebus sabaeus, Vero, read-out: pEC50 (Vero) (converted)
Experimental: as §1, §2

intracellular T. cruzi [2] = assay: Static-cidal assay (percent infected Vero cells, 96 h); assay type: cell-based, Trypanosoma cruzi (Silvio X10/7 A1) in Vero cells; details: Trypanosoma cruzi, Vero; 96 h; 0% = starting level of infection, 100% = 50μM Nifurtimox at 96h; only from concentrations not toxic to the host cells; read-out: MAX PI (SC), Maximum Percent Inhibition in the static cidal assay
Experimental: The secondary static-cidal assay uses the same protocol as the standard assay with the following changes: infection is done at MOI 10, and infected Vero cells are incubated 88h at 37°C in presence of 5% CO2 prior to trypsinisation and plating. Four hours after plating a control plate (no compounds) was fixed with formaldehyde as described above. Compound containing plates were fixed after incubation for 96 hours. Compounds are run as ten point dose response curves in triplicate. The algorithm for the secondary assay was similar to the primary assay but reported percent infected Vero cells instead of the mean number of parasites.
To assess screening hits for their ability to be cytocidal rather than cytostatic or growth slowing we developed a medium throughput (400 compounds / batch) assay to predict cidality of compounds against intracellular T. cruzi. […] Instead we developed an algorithm that assesses whether a Vero cell is infected or not, and we used the percentage of infected cells as primary measurement for the static-cidal assay. In order to readily identify cidal compounds we normalised the raw data using the starting level of infection as 0% effect and the final level of infection in presence of 50μM Nifurtimox as 100% effect control.

intracellular T. cruzi [3] = assay: Rate-of-kill assay (static-cidal assay in timecourse format); assay type: cell-based, Trypanosoma cruzi (Silvio X10/7 A1) in Vero cells; details: Trypanosoma cruzi; -LOG(MCC[M]); minimum cidal concentration, lowest concentration clearing at least half as many Vero cells as Nifurtimox (50μM) within 96 h; read-out: pMCC (RoK) (converted)
Experimental: The rate-of-kill assay uses the same protocol as the static-cidal assay but plates are incubated for 24, 48, 72 and 96 hours prior to fixing. Percent infected data is plotted as a time-course for each compound at every concentration. The minimum cidal concentration (MCC) is defined as the lowest concentration of compound that clears at least half as many Vero cells of intracellular parasites as Nifurtimox (50μM) within the timeframe of the assay.
To obtain rate-of-kill information we carried out the static-cidal assay in timecourse format (Fig 4A), with timepoints taken every 24h.

[4] = hits of the bio-actives screen, 10-point dose-response, top concentration 50μM, 72h

SMILES | EC50 [1, 4] [µM] | EC50 (Vero cells; [4]) [µM] | further results
CN1CCN(c2nc3cc(C(F)(F)F)ccc3n3cccc23)CC1.O=C(O)/C=C\C(=O)O.O=C(O)/C=C\C(=O)O [CGS 12066B] | – | – | pEC50 (cruzi) [1, 4]: 5.5; pEC50 (Vero) (Vero cells; [4]): 4.8
CCOC(=O)C1=C(C)NC(C)=C(C(=O)OC)C1c1cccc(Cl)c1Cl (stereo not shown) [Felodipine] | 5.01 | 15.8 | –
CNC1CC(c2ccc(Cl)c(Cl)c2)c2ccccc21 (stereo not shown) [Indatraline] | – | – | EC50 ([1]; 72 h): 5.01 µM; EC50 (Vero cells; 72 h): 12.6 µM
CCC(C)(C)c1ccc(CC(C)CN2C[C@@H](C)O[C@@H](C)C2)cc1 (stereo partly shown) [Amorolfine] | 10 | 15.8 | –
COc1cc2nc(N3CCN(C(=O)C4COc5ccccc5O4)CC3)nc(N)c2cc1OC (stereo not shown) [Doxazosin] | 5.01 | 15.8 | –
Clc1ccc(COC(Cn2ccnc2)c2ccc(Cl)cc2Cl)cc1 (stereo not shown) [Econazole] | – | – | Emax (intracellular T. cruzi [2]): 63%; MCC (intracellular T. cruzi [3]): 6.31e-08 M
C=C1[C@H](CO)[C@@H](O)C[C@@H]1n1cnc2c(=O)[nH]c(N)nc21 [Entecavir] | 3.98 | 15.8 | –
CCOc1nc2cccc(C(=O)OC(C)OC(=O)OC3CCCCC3)c2n1Cc1ccc(-c2ccccc2-c2nnn[nH]2)cc1 (stereo not shown) [Candesartan cilexetil] | 6.31 | 12.6 | –
CN(C)CC/C=C1/c2ccccc2Sc2ccc(Cl)cc21 [Chlorprothixene] | 3.16 | 15.8 | –
CO[C@H]1/C=C/O[C@@]2(C)Oc3c(C)c(O)c4c(O)c(c(/C=N/N5CCN(C6CCCC6)CC5)c(O)c4c3C2=O)NC(=O)/C(C)=C\C=C\[C@H](C)[C@H](O)[C@@H](C)[C@@H](O)[C@@H](C)[C@H](OC(C)=O)[C@@H]1C [Rifapentine] | 10 | 15.8 | –
COC(=O)[C@H]1[C@H]2C[C@@H]3c4[nH]c5cc(OC)ccc5c4CCN3C[C@H]2C[C@@H](OC(=O)c2cc(OC)c(OC)c(OC)c2)[C@@H]1OC [Reserpine] | 3.98 | 50.1 | –
COc1ccccc1OCCNCC(O)COc1cccc2[nH]c3ccccc3c12 (stereo not shown) [Carvedilol] | 5.01 | 15.8 | –
CC(C)(C)C(=O)OCOP(=O)(COCCn1cnc2c(N)ncnc21)OCOC(=O)C(C)(C)C [Adefovir Dipivoxil] | 6.31 | 15.8 | –
Fc1ccc([C@@H]2CCNC[C@H]2COc2ccc3c(c2)OCO3)cc1 [Paroxetine] | 5.01 | 12.6 | –
c1ccc2c(c1)Nc1ccccc1S2 [Phenothiazine] | – | – | EC50 ([1]; 72 h): 2.51 µM; EC50 (Vero cells; 72 h): 15.8 µM
CCCCC/C=C\C/C=C\C/C=C\C/C=C\CCCC(=O)Nc1ccc(O)cc1 [N-arachidonoylaminophenol] | – | – | pEC50 (cruzi) [1, 4]: 5.7; pEC50 (Vero) (Vero cells; [4]): 4.8
CN(C)CCCN1c2ccccc2Sc2ccc(Cl)cc21 [Chlorpromazine] | 3.98 | 10 | –
COc1ccc(CN2CCN(C(c3ccc(F)cc3)c3ccc(F)cc3)CC2)c(OC)c1OC [Lomerizine] | 3.98 | 15.8 | –
C[C@]12Cc3c[nH]nc3C[C@@H]1CC[C@@H]1[C@@H]2CC[C@@]2(C)[C@H]1CC[C@]2(C)O [Stanozolol] | – | – | EC50 ([1]; 72 h): 5.01 µM; EC50 (Vero cells; 72 h): 15.8 µM
C=CCc1ccc(O)c(-c2ccc(O)c(CC=C)c2)c1 [Honokiol] | 2 | 7.94 | –
NC(=O)N/N=C/c1ccc([N+](=O)[O-])o1 [Nitrofurazone] | 1 | 15.8 | –
Cc1ccc(NC(=O)c2ccc(CN3CCN(C)CC3)cc2)cc1Nc1nc(-c2cccnc2)cs1 [Masitinib] | 2 | 7.94 | –
O=C1[C@H]2CCCC[C@H]2C(=O)N1CCCCN1CCN(c2nsc3ccccc23)CC1 [Perospirone] | 6.31 | 15.8 | –

SMILES | EC50 [1, 4] [µM] | EC50 (Vero cells; [4]) [µM] | further results
CN1CCN(CC/C=C2/c3ccccc3Sc3ccc(S(=O)(=O)N(C)C)cc32)CC1 [Thiothixene] | 5.01 | 7.94 | –
C[C@]12CC[C@@H]3c4ccc(O)cc4C[C@@H](CCCCCCCCC[S+]([O-])CCCC(F)(F)C(F)(F)F)[C@H]3[C@@H]1CC[C@@H]2O (stereo partly shown) [Fulvestrant] | 5.01 | 15.8 | –
Nc1ncnc2c1ncn2[C@@H]1O[C@H](CO)C[C@H]1O [3'-deoxydenosine] | – | – | pEC50 (cruzi) [1, 4]: 5.6; pEC50 (Vero) (Vero cells; [4]): 4.3
Clc1ccccc1C(c1ccccc1)(c1ccccc1)n1ccnc1 [Clotrimazole] | – | – | Emax (intracellular T. cruzi [2]): 60%; MCC (intracellular T. cruzi [3]): 2.51e-08 M
Cc1cccc(CN2CCN(C(c3ccccc3)c3ccc(Cl)cc3)CC2)c1 (stereo not shown) [Meclizine] | 5.01 | 20 | –
C=C(C)CN1CC[C@]23c4c5ccc(O)c4O[C@H]2c2[nH]c4ccccc4c2C[C@@]3(O)C1C5.Cl.O [SDM25N] | – | – | pEC50 (cruzi) [1, 4]: 5.2; pEC50 (Vero) (Vero cells; [4]): 4.8
CN(C)[C@@H](CCOc1cccc2ccccc12)c1ccccc1 [Dapoxetine] | 5.01 | 15.8 | –
C[C@@H]1CN(CCCn2c3ccccc3c3ccccc32)C[C@H](C)N1 [Rimcazole] | 5.01 | 10 | –
CC(COc1ccccc1Cc1ccccc1)N1CCCCC1 (stereo not shown) [Benproperine] | 1.26 | 15.8 | –
C#C[C@]1(O)CC[C@H]2[C@@H]3CCC4=Cc5oncc5C[C@]4(C)[C@H]3CC[C@@]21C [Danazol] | 3.98 | 15.8 | –
COC(=O)C1=C(C)NC(C)=C(C(=O)OCCN(C)Cc2ccccc2)C1c1cccc([N+](=O)[O-])c1 (stereo not shown) [Cardene] | 3.98 | 15.8 | –
CNCC[C@H](Oc1cccc2ccccc12)c1cccs1 [Duloxetine] | – | – | EC50 ([1]; 72 h): 6.31 µM; EC50 (Vero cells; 72 h): 15.8 µM
COCCOC(=O)C1=C(C)NC(C)=C(C(=O)OC(C)C)C1c1cccc([N+](=O)[O-])c1 (stereo not shown) [Nimodipine] | 2 | 15.8 | –
COC(=O)C1=C(C)NC(C)=C(C(=O)OC2CCCN(Cc3ccccc3)C2)C1c1cccc([N+](=O)[O-])c1 (stereo not shown) [Benidipine] | 2 | 10 | –
C[C@]12C=CC(=O)N[C@@H]1CC[C@@H]1[C@@H]2CC[C@]2(C)[C@@H](C(=O)Nc3cc(C(F)(F)F)ccc3C(F)(F)F)CC[C@@H]12 [Dutasteride] | – | – | EC50 ([1]; 72 h): 15.8 µM; EC50 (Vero cells; 72 h): 15.8 µM
CCOC(=O)C1(c2ccccc2)CCN(CCC(C#N)(c2ccccc2)c2ccccc2)CC1 [Diphenoxylate] | – | – | EC50 ([1]; 72 h): 2.51 µM; EC50 (Vero cells; 72 h): 15.8 µM
COCCOC(=O)C1=C(C)NC(C)=C(C(=O)OC/C=C/c2ccccc2)C1c1cccc([N+](=O)[O-])c1 (stereo not shown) [Cilnidipine] | 1.26 | 15.8 | –
Oc1cc(Cl)ccc1Oc1ccc(Cl)cc1Cl [Triclosan] | – | – | EC50 ([1]; 72 h): 7.94 µM; EC50 (Vero cells; 72 h): 10 µM
CCCCC(=O)O[C@H]1CC[C@H]2[C@@H]3CCc4cc(O)ccc4[C@H]3CC[C@]12C [17β-estradiol 17-valerate] | – | – | pEC50 (cruzi) [1, 4]: 5.0; pEC50 (Vero) (Vero cells; [4]): 4.9
CCOC(=O)c1cncn1[C@H](C)c1ccccc1 [Etomidate] | – | – | EC50 ([1]; 72 h): 5.01 µM; EC50 (Vero cells; 72 h): 50.1 µM
CCOC(=O)C1=C(C)NC(C)=C(C(=O)OC)C1c1cccc([N+](=O)[O-])c1 (stereo not shown) [Nitrendipine] | 3.98 | 15.8 | –
C[C@@H](c1ncncc1F)[C@](O)(Cn1cncn1)c1ccc(F)cc1F [Voriconazole] | 0.0251 | 50.1 | Emax (intracellular T. cruzi [2]): 70%
